Results: patent publication US5356886A, “Antiviral phosphono-alken derivatives of purines” (Beecham Group p.l.c., priority 1990, dated 1994)
Converted amounts (≈) assume the structure as drawn.

Experiments:
Type in all cases: cell-based
CMV = test: Plaque Reduction Test for Cytomegalovirus (AD-169 strain) in MRC-5 cells; conditions: Human betaherpesvirus 5, AD169, MRC5
Experimental: (§1) MRC-5 cells were grown to confluence in 24 well multi-dishes (well diameter=1.5 cm). The drained cell monolayers were each infected with approximately 50 infectious particles of cytomegalovirus (CMV; AD-169 strain) in 100 μl of phosphate-buffered saline. The virus was adsorbed for 1 hour at room temperature. After adsorption, residual inoculum was removed from each well and replaced with 1 ml of Eagle's MEM containing 10% heat inactivated foetal calf serum and 0.9% agarose (A37). Once the agarose had set, dilutions of the test compound, which had been prepared in Eagle's MEM (containing 10% heat-inactivated calf serum), were added, each well receiving 1 ml of liquid overlay. The test compound was diluted to give the following series of concentrations: 200, 60, 20, 6 . . . 0.06 μg/ml; final concentrations in the assay range, therefore, between 100 μg/ml and 0.03 μg/ml. The infected cultures were incubated at 37° C. in a humidified atmosphere containing 5% CO2 until plaques were clearly visible (about 12 days). The cultures are fixed in formol saline, the agarose overlays were carefully washed off, and then the cell monolayers were stained with carbol fuchsin. A stereo microscope was used to count plaques. The IC50 (concentration of drug which inhibits the number of plaques formed by 50% relative to the number of plaques observed in virus control monolayers) of the test compound was calculated. In addition, the monolayers were examined for evidence of drug-induced cytotoxicity; the minimum concentration at which cytotoxicity occurs was recorded.

HIV = HIV Suppression test, viral RNA (nucleic acid hybridisation) in peripheral human lymphocytes; conditions: Human immunodeficiency virus 1, Lymphocyte, 96 h; Concn. 0.1 μM; read-out: % Inhibition on Day 4 after infection, Viral RNA
Experimental: Peripheral human lymphocytes were prepared, cultivated, and harvested as above. Following the determination of the lymphocyte surface markers, unstimulated and mitogen stimulated cells were combined in a ratio of 1:2.
Under safety conditions these cells are infected with a standard preparation of HIV. The cells are sedimented by centrifugation. The supernatant was discarded and cells were resuspended in the HIV inoculum.
This inoculum is a liquid suspension of HIV-1 strain virus, pretested and adjusted to a titer that results in a synthesis of viral core protein p24 of >100 ng/ml at day four following infection of human lymphocytes according to the protocol.
3×10^8 lymphocytes were resuspended in 1 ml HIV inoculum and incubated at 37° C. for 60 minutes. Subsequently, the cells were washed two times with 50 ml of culture medium and resuspended in culture medium containing 10 units/ml of human recombinant interleukin-2 to yield a cell concentration of 2×10^6 cells/ml. 100 μof this cell suspension was added to each well of the microtiter plates containing the diluted solutions of the compounds. The microtiter plates were cultivated in an incubator with a humidified atmosphere and 5% CO2 at 37° C.
Accordingly, a fraction of lymphocytes was mock-infected with the same virus preparation that was heat inactivated (30 minutes at 56° C.) prior to infection.
On each of the days 2,3 and 4 post infection one of the microtiter plates which had been established in triplicate was prepared for determination of viral replication. Viral RNA is determined within the cells whereas the viral core protein p24 was detected in the supernatant of the lymphocyte culture.
Accordingly, 150 μl of supernatant were removed from each well and transferred to the well of a microtiter plate containing 50 μl/well of SDS (sodium dodecylsulfate, 0.08%). These plates were stored frozen. 50 μl of stop solution (1% SDS, 20 mM sodium acetate, pH 5.0, and 200 μg/ml heparin) were added to the cells remaining in each well. The plates were stored frozen.
The concentration of p24 synthesized by the HIV infected cells was determined by means of a sandwich ELISA, while the concentration of viral RNA was quantitated by nucleic acid hybridisation, using a ^32 P-labelled DNA probe for the gag/pol region of the viral genome. Absolute levels of viral antigen and RNA in drug treated samples were compared with untreated, virus-infected controls and the percentage inhibition calculated.

[1] = Drug-induced cytotoxicity for the MRC-5 cell monolayers in the CMV test; conditions: human, mrc-5 cells, read-out: concentration at which cytotoxicity was noted
Experimental: as §1, with “The IC50 (concentration of drug which inhibits the number of plaques formed by 50% relative to the number of plaques observed in virus control monolayers) of the test compound was calculated.” left out

HSV-1 = test: Plaque Reduction Test for Herpes Simplex Virus 1 (strain SC16) in MRC-5 cells; conditions: Human alphaherpesvirus 1, MRC5
Experimental: (§2) MRC-5 cells were grown to confluence in 24 well multi-dishes (well diameter=1.5 cm). The drained cell monolayers were each infected with approximately 50 infectious particles of herpes simplex virus 1 (HSV-1; strain SC16) or herpes simplex virus 2 (HSV-2; strain MS) in 100 μl of phosphate-buffered saline. The virus was adsorbed for 1 hour at room temperature. After adsorption, residual inoculum was removed from each well and replaced with 0.5 ml of Eagle's MEM containing 5% newborn calf serum and 0.9% agarose (A37). Once the agarose had set, dilutions of the test compound, which had been prepared in Eagle's MEM (containing 5% newborn calf serum), were added, each well receiving 0.5 ml of liquid overlay. The test compound was diluted to give the following series of concentrations: 200, 60, 20, 6 . . . 0.06 μg/ml; final concentrations in the assay ranged, therefore, between 100 μg/ml and 0.03 μg/ml. The infected cultures were incubated at 37° C. in a humidified atmosphere of 5% CO2 until plaques were clearly visible (usually 1 day).
(§3) Cultures from 1 and 2 were fixed in formal saline, the agarose overlays were carefully washed off, and then the cell monolayers were stained with carbol fuchsin. A stereo microscope was used to count plaques. The IC50 (concentration of drug which inhibits the number of plaques formed by 50% relative to the number of plaques observed in virus control monolayers) of the test compound was calculated. In addition, the monolayers were examined for evidence of drug-induced cytotoxicity; the minimum concentration at which cytotoxicity occurs was recorded.

VZV = test: Plaque Reduction Test for Varicella-Zoster Virus (Ellen strain) in MRC-5 cells; conditions: Human alphaherpesvirus 3, MRC5
Experimental: as §2, with “varicella zoster” for “herpes simplex”, “(VZV; Ellen strain)” for “1 (HSV-1; strain SC16) or herpes simplex virus 2 (HSV-2; strain MS)”, “heat-inactivated foetal” for “newborn”, “(5 or 6 days).” for “(usually 1 day).”
as §3

In the case of `Nc1nc2c(ncn2OCC/C=C/P(=O)(O)O)c(=O)[nH]1` [Example 1, (E)-9-(4-phosphonobut-3-enyloxy)guanine], the IC50 (CMV) was 0.16 µg/mL (≈ 0.531 µM), the inhibition at 0.1 µM (HIV) was 93% and the MCC [1] was 10 µg/mL. For the same compound, the IC50 (HSV-1) was under 3 µg/mL and the IC50 (VZV) was under 3 µg/mL.
